Here are results for two compounds from article PMC7862291, “Full-length in meso structure and mechanism of rat kynurenine 3-monooxygenase inhibition” (Communications Biology, 2021).

Data set [1] can be described thus: Pharmacokinetic (brain penetration) study in rats. Format: in vivo. Conditions: Sprague-Dawley Crl:CD(SD), rat, male SD rats, 10 mg/kg ip, 1 h after a single administration. As for the experimental part:
Brain penetration studies were conducted in non-fasted male SD rats [Sprague-Dawley rats Crl:CD(SD), 8 weeks of age]. Compound 1 was intraperitoneally (ip) administered at 10 mg/kg in a solution of saline containing 10% dimethylformamide, 10% propylene glycol, and 4% 1 normality (N) sodium hydrate. […] Blood and brain were collected at 1 h after a single administration. The test compound in plasma samples or brain samples was extracted by deproteination with acetonitrile, and then analysed using LC-MS/MS.

The target in a further data set is T1, Rat KMO (Rattus norvegicus, UniProt O88867).
T1 construct: The GST-tagged full-length KMO (1-478) baculovirus vector contained a thrombin cleavage site; GST (thrombin cleavage site between GST and KMO) (N, cleaved yes); made in house; host or cells: Spodoptera frugiperda (Sf9), baculovirus
As to the kind of experiment: Rat KMO enzyme (cell-free) assay, NADPH consumption by absorbance. In kind it is biochemical. How it is done:
(§1) Human KMO was purchased from Origene and used to assay compounds. Full-length Rat-KMO purified for crystallisation was used to assay compounds. Full-length Rat-KMO-expressing membranes were used for mutant assays (Fig. 4b) only. […] Images were taken using Odyssey CLX (LI-COR Biosciences) and quantified using ImageStudio2.0 (LI-COR Biosciences) software.
(§2) Test compounds were dissolved in DMSO and diluted with assay buffer containing 50 mM HEPES, 2 mM MgCl2, 0.5 mM EGTA, 1 mM DTT, 0.05% Tween20 and 0.005% of antiform SI (pH = about 7.9) to prepare a 4% DMSO solution. […] After 5 min of pre-incubation, reactions were started by adding 10 μL of substrate solution containing 2.4 mM kynurenine and 0.6 mM NADPH. Reactions were run for 90 min at 30 °C, then terminated by adding 5 μL of stop buffer (40 mM maleimide, 2 mM WST-9 and 0.1 mM 1-methoky PMS in water). […] Liposomal assays were performed in the same manner except that the composition of the assay buffer was changed (phosphate-buffered saline, 2 mM MgCl2, 1 mM DTT, 0.05% Tween 20).
(§3) Compound assays were analysed and plotted on graphs using Prism (GraphPad Software Inc. San Diego, CA, USA).

The next data set concerns the target T2, hKMO (Homo sapiens, UniProt O15229).
T2 construct: purchased Origene
As to the kind of experiment: Human KMO enzyme (cell-free) assay, NADPH consumption by absorbance. In kind it is biochemical. How it is done: as §1, §2, §3

Where two headings read alike, the source gives them in different places.

T2 sequence (O15229 whole entry): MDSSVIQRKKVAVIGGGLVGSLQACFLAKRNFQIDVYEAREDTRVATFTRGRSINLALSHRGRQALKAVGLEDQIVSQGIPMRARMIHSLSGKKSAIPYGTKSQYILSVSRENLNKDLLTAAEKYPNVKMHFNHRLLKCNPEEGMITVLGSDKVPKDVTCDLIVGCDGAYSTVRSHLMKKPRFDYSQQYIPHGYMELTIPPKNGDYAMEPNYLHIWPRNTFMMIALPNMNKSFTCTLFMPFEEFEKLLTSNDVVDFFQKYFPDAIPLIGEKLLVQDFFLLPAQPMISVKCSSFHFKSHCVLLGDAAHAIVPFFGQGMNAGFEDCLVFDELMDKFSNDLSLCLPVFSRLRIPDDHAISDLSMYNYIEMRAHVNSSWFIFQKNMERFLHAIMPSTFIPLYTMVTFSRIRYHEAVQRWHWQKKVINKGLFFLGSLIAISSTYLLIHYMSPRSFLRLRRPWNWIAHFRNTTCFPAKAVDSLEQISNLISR
T1 sequence (O88867 whole entry): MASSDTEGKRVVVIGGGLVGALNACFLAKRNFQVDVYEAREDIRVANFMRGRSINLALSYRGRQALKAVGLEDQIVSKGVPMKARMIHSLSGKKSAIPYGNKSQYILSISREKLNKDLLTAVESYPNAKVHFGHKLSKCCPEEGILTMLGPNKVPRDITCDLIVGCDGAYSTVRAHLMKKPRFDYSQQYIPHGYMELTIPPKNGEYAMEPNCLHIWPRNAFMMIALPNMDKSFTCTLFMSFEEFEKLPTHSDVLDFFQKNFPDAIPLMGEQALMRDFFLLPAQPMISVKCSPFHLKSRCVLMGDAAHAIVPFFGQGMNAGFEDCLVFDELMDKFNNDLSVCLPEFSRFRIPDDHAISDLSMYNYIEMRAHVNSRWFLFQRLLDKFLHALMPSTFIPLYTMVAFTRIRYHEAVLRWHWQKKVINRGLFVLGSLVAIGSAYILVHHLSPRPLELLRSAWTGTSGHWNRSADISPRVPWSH

In the case of `Cn1c(=O)[nH]c(=O)c2cc(-c3ncccc3-c3ccc(Cl)c(F)c3)ccc21` [Compound 5], the Kp (usually tissue or fluid exposure divided by exposure in the circulation) at 1 h in data set [1] (brain/plasma) stood at 0.8. The concentration at 1 h in data set [1] (brain, read-out: Exposure in brain) was 6020 ng/g; in data set [1] (plasma, read-out: Exposure in plasma), 7560 ng/mL.

In the case of `COc1ccc2c(c1)CN(c1nc(C(=O)N(C)c3cc(Cl)c(F)cc3C(=O)O)c(Cl)s1)C2` [Compound 4], the IC50 (as a rule, the concentration needed to halve the response being measured) on Rat KMO (cell-free enzyme assay, high kynurenine) turned out to be 17 nM; at hKMO (cell-free enzyme assay, high kynurenine, read-out: Human KMO IC50), 14 nM. Besides, the “inhibition rate, Rat-KMO cell-free assay (Figure 1B source data)” value at Rat KMO (conc 0.0003 μM, duplicates) turned out to be 10.786%; at Rat KMO (conc 0.001 μM, duplicates), 13.043%; on Rat KMO (conc 0.003 μM, duplicates), 19.707%; against Rat KMO (conc 0.01 μM, duplicates), 32.767%; against Rat KMO (conc 0.03 μM, duplicates) it was 60.579%; against Rat KMO (conc 0.1 μM, duplicates), 80.975%. Also, the “inhibition rate, Rat-KMO cell-free assay (Figure 1B source data)” value at Rat KMO (conc 0.3 μM, duplicates) was 95.593%; on Rat KMO (conc 1 μM, duplicates), 93.954%. Besides, the inhibition (as a rule, the drop in the measured response relative to a control, in per cent) at 0.0003 µM at Rat KMO (conc 0.0003 μM, duplicates, read-out: inhibition rate, Rat-KMO cell-free assay (Figure 1B source data)) was 11.1%; on hKMO (conc 0.0003 μM, duplicates, read-out: inhibition rate, Hs-KMO cell-free assay (Figure 1A source data)), 8.45%. For the same compound, the inhibition at 0.001 µM at Rat KMO (conc 0.001 μM, duplicates, read-out: inhibition rate, Rat-KMO cell-free assay (Figure 1B source data)) was found to be 12.6%; at hKMO (conc 0.001 μM, duplicates, read-out: inhibition rate, Hs-KMO cell-free assay (Figure 1A source data)) it was 4.54%. Further, the inhibition at 0.003 µM on Rat KMO (conc 0.003 μM, duplicates, read-out: inhibition rate, Rat-KMO cell-free assay (Figure 1B source data)) amounted to 21.2%; on hKMO (conc 0.003 μM, duplicates, read-out: inhibition rate, Hs-KMO cell-free assay (Figure 1A source data)) it was 15.5%. In addition, the inhibition at 0.01 µM at Rat KMO (conc 0.01 μM, duplicates, read-out: inhibition rate, Rat-KMO cell-free assay (Figure 1B source data)) was found to be 33%; at hKMO (conc 0.01 μM, duplicates, read-out: inhibition rate, Hs-KMO cell-free assay (Figure 1A source data)) it was 34.9%. Besides, the inhibition at 0.03 µM at Rat KMO (conc 0.03 μM, duplicates, read-out: inhibition rate, Rat-KMO cell-free assay (Figure 1B source data)) was found to be 60.5%; on hKMO (conc 0.03 μM, duplicates, read-out: inhibition rate, Hs-KMO cell-free assay (Figure 1A source data)) it was 74.2%. Moreover, the inhibition at 0.1 µM amounted to 83% on Rat KMO (conc 0.1 μM, duplicates, read-out: inhibition rate, Rat-KMO cell-free assay (Figure 1B source data)) and 92.8% at hKMO (conc 0.1 μM, duplicates, read-out: inhibition rate, Hs-KMO cell-free assay (Figure 1A source data)). The inhibition at 0.3 µM on Rat KMO (conc 0.3 μM, duplicates, read-out: inhibition rate, Rat-KMO cell-free assay (Figure 1B source data)) came to 101%; at hKMO (conc 0.3 μM, duplicates, read-out: inhibition rate, Hs-KMO cell-free assay (Figure 1A source data)), 106%. Besides, the inhibition at 1 µM was 97.8% at Rat KMO (conc 1 μM, duplicates, read-out: inhibition rate, Rat-KMO cell-free assay (Figure 1B source data)) and 104% on hKMO (conc 1 μM, duplicates, read-out: inhibition rate, Hs-KMO cell-free assay (Figure 1A source data)). The “inhibition rate, Hs-KMO cell-free assay (Figure 1A source data)” value amounted to 6.826% against hKMO (conc 0.001 μM, duplicates); 16.103% against hKMO (conc 0.003 μM, duplicates); 39.429% against hKMO (conc 0.01 μM, duplicates); 71.311% on hKMO (conc 0.03 μM, duplicates); 87.583% against hKMO (conc 0.1 μM, duplicates); 98.840% against hKMO (conc 0.3 μM, duplicates). In addition, the “inhibition rate, Hs-KMO cell-free assay (Figure 1A source data)” value on hKMO (conc 1 μM, duplicates) turned out to be 98.570%.
